Patent publication US20180162862A1 (President and Fellows of Harvard College, priority 2015, published 2018)
Converted amounts (≈) assume the structure as drawn. Read-outs that look alike come from different tables or passages of the source.

Columns and labels:
S. aureus RN4220 [1] = details: S. aureus RN4220 grown with 65 ug/mL for 22 h, repeated
Method: A liquid culture of wild-type S. aureus RN4220 was grown up in the presence of 1882L04 (65 ug/mL) for 22 h. This culture was normalized to OD600=0.6, diluted 100×, and grown up in the presence of 1882L04 (65 ug/mL) and DMSO. The cultures obtained after 22 h were treated as mentioned before and grown up again.

MSSA Newman = assay: MIC test in TSB medium with MTT staining, MSSA Newman; format: cell-based, Staphylococcus aureus; details: TSB, 37° C., MTT staining after 22 h
Method: MIC Test (Methicillin Susceptible Staphylococcus aureus (MSSA Newman))
Overnight cultures of MSSA Newman were grown up in TSB medium at 37° C. The cultures obtained were normalized with TSB to OD600=0.6 and diluted 100-fold. 1.5 μL of a dilution series of Example Compounds in DMSO (100×, in duplicate), and the diluted bacterial culture (150 μL) was added to wells of a sterile, clear 96 well plate and incubated at 37° C.

S. aureus SgtB [2] = target: T1, S. aureus SgtB (Staphylococcus aureus, UniProt Q99T05); assay: Michaelis-Menten kinetics of lipid II polymerization by S. aureus SgtB in the presence of 1882L04; format: biochemical; set-up: made in house
T1 sequence (Q99T05 68-269): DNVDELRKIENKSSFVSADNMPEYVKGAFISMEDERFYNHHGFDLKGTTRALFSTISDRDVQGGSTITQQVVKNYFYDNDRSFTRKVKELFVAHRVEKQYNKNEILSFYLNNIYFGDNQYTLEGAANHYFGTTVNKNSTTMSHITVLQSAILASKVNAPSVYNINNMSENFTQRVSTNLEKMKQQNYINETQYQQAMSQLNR
Method: (ii) Determination of KM and vmax for Polymerization of Lipid II by S. aureus SgtB in the Presence of 1882L04
The polymerization reaction was initiated by addition of radioactively labeled lipid II (1 μL, 100 μM, ^14C/^12C=1/3; for a final concentration of 10 μM=KM). […] This ratio was multiplied with the concentration of lipid II used to obtain the amount of lipid II in PG in μM. This value was devided by 1200 s to obtain the reaction rate v in μM/s, which was plotted vs. concentration of lipid II.

S. aureus SgtB [3] = target: T1, S. aureus SgtB; details: read-out: IC50, in vitro inhibition of S. aureus SgtB; 50 nM SgtB, 14C-lipid II, 25 min at room temperature, two independent experiments
Method: In Vitro Inhibition of Polymerization of Lipid II by PGTs
(i) In Vitro Inhibition of S. aureus SgtB:
Then ^14C-labelled lipid II (1 μL, 40 μM, ^14C/^12C 1/3) was added and the polymerization reaction was allowed to proceed for 25 min at room temperature. The reaction was quenched with 10 μL of a solution of moenomycin (1 μM) in 10% triton-X reduced and the remaining lipid II was separated from peptidoglycan (PG) using paper strip chromatography (isobutyric acid/1M NH4OH 5/3). Using a scintillation counter the ratio of radioactivity in PG to total radioactivity was determined and plotted vs. inhibitor concentration. IC50 values were determined using the curve fitting program GraphPad Prism 5.0 (GraphPad Software, Inc.; La Jolla, Calif., USA).

S. aureus SgtB [4] = target: T1, S. aureus SgtB; assay: Dose-dependent displacement of probe CMG121 from S. aureus SgtB by fluorescence polarization; format: binding; set-up: made in house
Method: I. Dose-Dependent Displacement of CMG121 from S. aureus SgtB by Fluorescence Polarization
A black 384 well plate (Corning NBS Low Volume No. 3820) was filled (10 μL per well) with an equilibrated solution containing 10 mM TRIS (pH=8.0), 100 mM NaCl, 75 nM CMG121, and 1.0-1.5 μM S. aureus SgtB (depending on protein batch). Due to presence of 8 mM CHAPS detergent in the buffer of the S. aureus SgtB stock, the final assay solution contains 100-160 μM CHAPS. Using an HP D300 Digital Dispenser, for each compound a 1/1 dilution series (12 wells) of the primary hit compound in DMSO (normalized to 1 μL with DMSO) was prepared and added to the aforementioned assay solution. The plate was incubated at 4° C. for 30 min and read with a Perkin Elmer EnVision microplate reader (FP-read out, excitation: 480 nm; emission: 535 nm).
FIGS. 10A-E show values of reduction of fluorescence polarization for exemplified compounds. […] In the primary assay, FP was read after 30 min at 4° C., compound concentration was ca. 100 μM, and 90% reduction in FP was threshold for scoring hits (Gampe et al., J. Am. Chem. Soc. 2013, 135 (10), 3776-3779; U.S. Provisional Patent Application, U.S. Ser. No. 61/621,229, filed on Apr. 6, 2012; International Application No. PCT/US2013/030800 filed on Mar. 13, 2013).
The values were determined in two independent experiments. IC50=10 μM; Hill slope: −0.92.

MSSA NE1 = assay: MIC test in TSB medium with MTT staining, MSSA NE1; format: cell-based, Staphylococcus aureus
Method: MIC Test (Methicillin Susceptible Staphylococcus aureus (MSSA Newman) and MSSA NE1)
Overnight cultures of MSSA Newman and MSSA NE1 were grown up in TSB medium at 37° C. The cultures obtained were normalized with TSB to O600=0.6 and diluted 100-fold. A sterile, clear 96 well plate was charged with 1.5 μL of a dilution series compound 1882L04 in DMSO (100×, in duplicate), and the diluted bacterial culture was added (150 μL). Moenomycin at a final concentration of 2.3 μM was used as positive control.

E. faecalis PBP2a = assay: In vitro inhibition of polymerization of 14C-lipid II by E. faecalis PBP2a; format: biochemical; details: 50 nM PBP2a, 25 min at room temperature
Method: (ii) In Vitro Inhibition of E. faecalis PBP2a
Solutions of the E. faecalis PBP2a (50 nM) in 50 mM HEPES (pH=7.5), 10 mM CaCl2, and 1000 U/min PenG (8 μL) were incubated with DMSO solutions containing the inhibitor of interest in different concentrations (1 μL) for 20 min. Then ^14C-labelled lipid II (1 μL, 40 μM, ^14C/^12C 1/3) was added and the polymerization reaction was allowed to proceed for 25 min at room temperature.

S. aureus NEI = assay: TEM imaging of S. aureus NE1 treated with compound; format: cell-based
Source text: FIGS. 7A and 7B show TEM imaging of S. aureus NEI treated with compound 1882L04.

S. aureus RN4220 [5] = assay: Growth (CFU) of S. aureus RN4220 in the presence of compound; format: cell-based; details: S. aureus RN4220, 1-6 h

## Cc1cccc(OCCCSc2nc(-c3ccc(C(C)(C)C)cc3)nc3cc(=O)[nH]n23)c1C [1882L04]
S. aureus RN4220 [1]
  Development of resistance: became resistant
MSSA Newman
  MIC MSSA Newman: 125 µg/mL (≈ 270 µM)
S. aureus SgtB [2]; c(1882L04)=50 μM
  Km: 18.2 µM
  vmax for polymerization of lipid II by SgtB: 0.015 µM/s
S. aureus SgtB [2]; c(1882L04)=100 μM
  Km: 20.9 µM
  vmax for polymerization of lipid II by SgtB: 0.012 µM/s
S. aureus SgtB [3]
  IC50: 97 µM
S. aureus SgtB [4]; displacement of 75 nM CMG121 from S. aureus SgtB, 30 min at 4° C., read-out: IC50 from FP Assay
  IC50: 10 µM
S. aureus SgtB [4]; displacement of CMG121 from S. aureus SgtB, two independent experiments
  Hill slope: −0.92
MSSA NE1
  Sensitization of MSSA NE1 to compound (MIC data): sensitized
MSSA NE1; TSB, 37° C., MTT staining after 22 h
  MIC MSSA NE1: 8 µg/mL (≈ 17.3 µM)
E. faecalis PBP2a
  IC50: 337 µM
S. aureus NEI
  Cell morphology by TEM: growth defects
S. aureus RN4220 [5]
  Type of antibacterial activity (number of CFUs): bacteriostatic activity
